System: 299254-011-R-J1-PDC complex spheroid viability
Assay: Anticancer human tumor 299254-011-R-J1-PDC patient-derived melanoma cell line growth inhibition [POLQ]
Details: for IC50: curve of first compound; for viability, T/C: stronger effect = lower value
Outline: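 PDC + HUVEC + MSC complex spheroids; POLQ inhibitors ± partner drugs; top conc. at/near clinical Cmax, else 10 microM (SN-38 1 microM), half-log dilutions; 37 degrees C, 5% CO2.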

[1] = second compound 0.0316 µM, first compound 0.0316 µM
[2] = second compound 0.0316 µM, first compound 0.1 µM
[3] = second compound 0.0316 µM, first compound 0.316 µM
[4] = second compound 0.0316 µM, first compound 1 µM
[5] = second compound 0.0316 µM, first compound 3.16 µM
[6] = second compound 0.0316 µM, first compound 10 µM
[7] = second compound 0.1 µM, first compound 0.0316 µM
[8] = second compound 0.1 µM, first compound 0.1 µM
[9] = second compound 0.1 µM, first compound 0.316 µM
[10] = second compound 0.1 µM, first compound 1 µM
[11] = second compound 0.1 µM, first compound 3.16 µM
[12] = second compound 0.1 µM, first compound 10 µM
[13] = second compound 0.316 µM, first compound 0.0316 µM
[14] = second compound 0.316 µM, first compound 0.1 µM
[15] = second compound 0.316 µM, first compound 0.316 µM
[16] = second compound 0.316 µM, first compound 1 µM
[17] = second compound 0.316 µM, first compound 3.16 µM
[18] = second compound 0.316 µM, first compound 10 µM
[19] = second compound 1 µM, first compound 0.0316 µM
[20] = second compound 1 µM, first compound 0.1 µM
[21] = second compound 1 µM, first compound 0.316 µM
[22] = second compound 1 µM, first compound 1 µM
[23] = second compound 1 µM, first compound 3.16 µM
[24] = second compound 1 µM, first compound 10 µM
[25] = second compound 3.16 µM, first compound 0.0316 µM
[26] = second compound 3.16 µM, first compound 0.1 µM
[27] = second compound 3.16 µM, first compound 0.316 µM
[28] = second compound 3.16 µM, first compound 1 µM
[29] = second compound 3.16 µM, first compound 3.16 µM
[30] = second compound 3.16 µM, first compound 10 µM
[31] = second compound 10 µM, first compound 0.0316 µM
[32] = second compound 10 µM, first compound 0.1 µM
[33] = second compound 10 µM, first compound 0.316 µM
[34] = second compound 10 µM, first compound 1 µM
[35] = second compound 10 µM, first compound 3.16 µM
[36] = second compound 10 µM, first compound 10 µM
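Also: spheroids exposed to drugs for one week before measurement.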
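For viability, T/C in this document: percent viability relative to DMSO vehicle control taken as 100%.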

For `C=CC(=O)N1CCN(c2nc(=O)n(-c3c(C)ccnc3C(C)C)c3nc(-c4c(O)cccc4F)c(F)cc23)C(C)C1` (stereo unspecified) + Cc1cccc(N(C)C(=O)C2C(O)CCN2c2nc(C)cc(C(F)(F)F)c2C#N)c1, the IC50 (second compound 0.0316 µM) was > 10 µM, the IC50 (second compound 0.1 µM) was > 10 µM and the IC50 (second compound 0.316 µM) was > 10 µM. For the same compound, the IC50 (second compound 1 µM) was > 10 µM, the IC50 (second compound 3.16 µM) was > 10 µM and the IC50 (second compound 10 µM) was > 10 µM. It also gave a viability, T/C [1] of 88.6%, a viability, T/C [2] of 75.1% and a viability, T/C [3] of 72.8%. It also gave a viability, T/C [4] of 67.8%, a viability, T/C [5] of 63.4% and a viability, T/C [6] of 68.9%. It also gave a viability, T/C [7] of 85.2%, a viability, T/C [8] of 78.1% and a viability, T/C [9] of 64%. The viability, T/C [10] was 79.3%, the viability, T/C [11] was 69.3% and the viability, T/C [12] was 58.7%. For the same compound, the viability, T/C [13] was 99.5%, the viability, T/C [14] was 81.8% and the viability, T/C [15] was 88.3%. It also gave a viability, T/C [16] of 77.2%, a viability, T/C [17] of 74.3% and a viability, T/C [18] of 64.4%. The viability, T/C [19] was 88.4%, the viability, T/C [20] was 73.8% and the viability, T/C [21] was 63.5%. For the same compound, the viability, T/C [22] was 64.5%, the viability, T/C [23] was 82.2% and the viability, T/C [24] was 67.9%. It also gave a viability, T/C [25] of 84%, a viability, T/C [26] of 84.8% and a viability, T/C [27] of 66.4%. It also gave a viability, T/C [28] of 70.1%, a viability, T/C [29] of 66.1% and a viability, T/C [30] of 72.8%. The viability, T/C [31] was 90.5%, the viability, T/C [32] was 72.7% and the viability, T/C [33] was 56.4%. The viability, T/C [34] was 74%, the viability, T/C [35] was 74.9% and the viability, T/C [36] was 75.2%.

In the case of `CC(C)n1c(=O)n(C)c2cnc3cc(F)c(-c4ccc(OCCCN5CCCCC5)nc4)cc3c21` + Cc1cccc(N(C)C(=O)C2C(O)CCN2c2nc(C)cc(C(F)(F)F)c2C#N)c1, the IC50 (second compound 0.0316 µM) is reported as > 10 µM, the IC50 (second compound 0.1 µM) is reported as > 10 µM and the IC50 (second compound 0.316 µM) is reported as > 10 µM. For the same compound, the IC50 (second compound 1 µM) was > 10 µM, the IC50 (second compound 3.16 µM) was > 10 µM and the IC50 (second compound 10 µM) was > 10 µM. The viability, T/C [1] was 98.6%, the viability, T/C [2] was 102% and the viability, T/C [3] was 84.6%. For the same compound, the viability, T/C [4] was 90.1%, the viability, T/C [5] was 102% and the viability, T/C [6] was 68.2%. For the same compound, the viability, T/C [7] was 96.2%, the viability, T/C [8] was 92.9% and the viability, T/C [9] was 90.4%. It also gave a viability, T/C [10] of 90.1%, a viability, T/C [11] of 97% and a viability, T/C [12] of 81.2%. It also gave a viability, T/C [13] of 93.9%, a viability, T/C [14] of 98.8% and a viability, T/C [15] of 89.2%. For the same compound, the viability, T/C [16] was 88.9%, the viability, T/C [17] was 94.1% and the viability, T/C [18] was 76.3%. For the same compound, the viability, T/C [19] was 92.5%, the viability, T/C [20] was 96.5% and the viability, T/C [21] was 89.1%. The viability, T/C [22] was 98.8%, the viability, T/C [23] was 93.5% and the viability, T/C [24] was 67.6%. It also gave a viability, T/C [25] of 113%, a viability, T/C [26] of 119% and a viability, T/C [27] of 90.3%. For the same compound, the viability, T/C [28] was 95.3%, the viability, T/C [29] was 90.4% and the viability, T/C [30] was 64.1%. The viability, T/C [31] was 87.9%, the viability, T/C [32] was 97% and the viability, T/C [33] was 106%. For the same compound, the viability, T/C [34] was 107%, the viability, T/C [35] was 79.3% and the viability, T/C [36] was 71.1%.

In the case of `CC1COCCN1c1cc(-c2ccnn2C)c2ccnc(-c3ccn[nH]3)c2n1` (stereo unspecified) + Cc1cccc(N(C)C(=O)C2C(O)CCN2c2nc(C)cc(C(F)(F)F)c2C#N)c1, the IC50 (second compound 0.0316 µM) is reported as 0.246 µM, the IC50 (second compound 0.1 µM) is reported as 0.217 µM and the IC50 (second compound 0.316 µM) is reported as 0.297 µM. It also gave an IC50 (second compound 1 µM) of 0.221 µM, an IC50 (second compound 3.16 µM) of 0.158 µM and an IC50 (second compound 10 µM) of 0.153 µM. For the same compound, the viability, T/C [1] was 95.1%, the viability, T/C [2] was 73.4% and the viability, T/C [3] was 42.1%. For the same compound, the viability, T/C [4] was 31.5%, the viability, T/C [5] was 27.3% and the viability, T/C [6] was 22.5%. It also gave a viability, T/C [7] of 77.4%, a viability, T/C [8] of 77.2% and a viability, T/C [9] of 36.9%. For the same compound, the viability, T/C [10] was 30.4%, the viability, T/C [11] was 20.2% and the viability, T/C [12] was 19%. It also gave a viability, T/C [13] of 104%, a viability, T/C [14] of 73.5% and a viability, T/C [15] of 48.6%. For the same compound, the viability, T/C [16] was 30.8%, the viability, T/C [17] was 23.6% and the viability, T/C [18] was 14.6%. It also gave a viability, T/C [19] of 111%, a viability, T/C [20] of 73.1% and a viability, T/C [21] of 38.2%. For the same compound, the viability, T/C [22] was 28.2%, the viability, T/C [23] was 22.1% and the viability, T/C [24] was 19%. The viability, T/C [25] was 82.8%, the viability, T/C [26] was 59.1% and the viability, T/C [27] was 36.5%. For the same compound, the viability, T/C [28] was 24.6%, the viability, T/C [29] was 24.7% and the viability, T/C [30] was 20.1%. The viability, T/C [31] was 76.4%, the viability, T/C [32] was 59.1% and the viability, T/C [33] was 34%. The viability, T/C [34] was 29%, the viability, T/C [35] was 20.7% and the viability, T/C [36] was 19.4%.

From PubChem BioAssay AID1963849 (Molecular Pharmacology Branch, DTP, NCI, 2024)
